# Test results as given in patent US20020051978A1, “Methods and compositions for the identification, assessment, prevention and therapy of human cancers” (priority 2000, published 2002).
# “And” between values parts separate entries of the source, which are not always exact repeats. Equal values may be shown once. Read-outs that look alike come from different tables or passages of the source.
# Key:
# [1] = system: 60 cancer cell lines (NCI 60 cancer cell line series); details: cited from earlier work
# [2] = system: 60 cancer cell lines (NCI 60 cancer cell line series); test: NCI-DTP in vitro cancer screen, sulforhodamine B (SRB) growth inhibition, 48 hour exposure; type: cell-based, human; design: key to sensitivity class Ovarian OVCAR-8 CL6005 / sensitivity class Ovarian SK-OV-3 CL6011 / sensitivity class Prostate DU-145 CL11003 / sensitivity class NSCLC NCI-H522 CL1003 / sensitivity class Ovarian IGROV1 CL6010 / sensitivity class Ovarian OVCAR-4 CL6002 / sensitivity class Prostate PC-3(I) CL11001 / sensitivity class Renal A498 CL9013 / sensitivity class Renal SN12C CL9008: sensitivity class: 1 = Low, 2 = Medium, 3 = High
# Outline: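 Sixty NCI-DTP cancer lines plated at line-specific densities, dosed on day 1 in duplicate with 5 concentrations at ten-fold intervals. After 48 h exposure, cell mass read by SRB staining; GI50 (50% growth inhibition) taken from dose-response curves and expressed as -log GI50.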
smiles,measurement,setting,value
CN(Cc1cnc2nc(N)nc(N)c2n1)c1ccc(C(=O)N[C@@H](CCC(=O)O)C(=O)O)cc1 [Methotrexate],-Log (GI50),[1]; Breast MCF7/ADRr (CL5002),7.3 and 7.0
same,-Log (GI50),[1]; CNS SF-268 CL12014,7.5 and 7.3
same,-Log (GI50),[1]; Colon COLO-250 CL4010,6.2 and 6.0
same,-Log (GI50),[1]; Colon HCC-2998 (CL4002),7.0 and 6.9
same,-Log (GI50),[1]; Colon HT29(I) CL4001,7.7 and 7.5
same,-Log (GI50),[1]; Colon KM12 (CL4017),7.4 and 7.3
same,-Log (GI50),[1]; Colon SW-620 (CL4009),7.2 and 7.5
same,-Log (GI50),[1]; Leukemia CCRF-CEM(I) (CL7003),7.4 and 7.5
same,-Log (GI50),[1]; Leukemia HL-60(I) (CL7008),7.4
same,-Log (GI50),[1]; Leukemia MOLT-4 (CL7006),7.6 and 7.5
same,-Log (GI50),[1]; Leukemia RPMI-8226(I) (CL7010),6.9 and 7.1
same,-Log (GI50),[1]; Melanoma M14 (CL10014),7.5
same,-Log (GI50),[1]; Melanoma MALME-3M CL10002,5.4 and 5.5
same,-Log (GI50),[1]; Melanoma SK-MEL-5 (CL10007),7.2 and 7.0
same,-Log (GI50),[1]; Melanoma SK-MEL-28 (CL10008),5.3 and 5.4
same,-Log (GI50),[1]; NSCLC EKVX (CL1008),5.0
same,-Log (GI50),[1]; NSCLC HOP-92 (CL1029),5.1
same,-Log (GI50),[1]; NSCLC NCI-H332M CL1017,6.4 and 6.3
same,-Log (GI50),[1]; Prostate DU-145 CL11003,7.6 and 7.3
same,-Log (GI50),[1]; Renal 786-O CL9018,7.5
same,"classification of cell line as Low(1), Medium(2) or High(3) sensitivity to compound",[2]; Breast BT-549 (CL5013),1
same,"classification of cell line as Low(1), Medium(2) or High(3) sensitivity to compound",[2]; Breast HS-578T CL5006,1
same,"classification of cell line as Low(1), Medium(2) or High(3) sensitivity to compound",[2]; Breast MCF7/ADRr (CL5002),2
same,"classification of cell line as Low(1), Medium(2) or High(3) sensitivity to compound",[2]; Breast MDA-MB-231 CL5005,1
same,"classification of cell line as Low(1), Medium(2) or High(3) sensitivity to compound",[2]; Breast T-47D (CL5014),1
same,"classification of cell line as Low(1), Medium(2) or High(3) sensitivity to compound",[2]; CNS SF-268 CL12014,2
same,"classification of cell line as Low(1), Medium(2) or High(3) sensitivity to compound",[2]; CNS SF-295 CL12015,3
same,"classification of cell line as Low(1), Medium(2) or High(3) sensitivity to compound",[2]; CNS SF-539 CL12016,3
same,"classification of cell line as Low(1), Medium(2) or High(3) sensitivity to compound",[2]; CNS U251(I) CL12009,2
same,"classification of cell line as Low(1), Medium(2) or High(3) sensitivity to compound",[2]; Colon COLO-250 CL4010,2
same,"classification of cell line as Low(1), Medium(2) or High(3) sensitivity to compound",[2]; Colon HCC-2998 (CL4002),2
same,"classification of cell line as Low(1), Medium(2) or High(3) sensitivity to compound",[2]; Colon HCT-15 CL4015,3
same,"classification of cell line as Low(1), Medium(2) or High(3) sensitivity to compound",[2]; Colon HCT-116 (CL4003),3
same,"classification of cell line as Low(1), Medium(2) or High(3) sensitivity to compound",[2]; Colon KM12 (CL4017),2
same,"classification of cell line as Low(1), Medium(2) or High(3) sensitivity to compound",[2]; Leukemia HL-60(I) (CL7008),2
same,"classification of cell line as Low(1), Medium(2) or High(3) sensitivity to compound",[2]; Leukemia K562(I) CL7005,3
same,"classification of cell line as Low(1), Medium(2) or High(3) sensitivity to compound",[2]; Leukemia RPMI-8226(I) (CL7010),2
same,"classification of cell line as Low(1), Medium(2) or High(3) sensitivity to compound",[2]; Melanoma LOX IMVI CL10001,3
same,"classification of cell line as Low(1), Medium(2) or High(3) sensitivity to compound",[2]; Melanoma SK-MEL-2 (CL10005),1
same,"classification of cell line as Low(1), Medium(2) or High(3) sensitivity to compound",[2]; Melanoma SK-MEL-5 (CL10007),2
same,"classification of cell line as Low(1), Medium(2) or High(3) sensitivity to compound",[2]; Melanoma SK-MEL-28 (CL10008),1
same,"classification of cell line as Low(1), Medium(2) or High(3) sensitivity to compound",[2]; Melanoma UACC-62 (CL10020),3
same,"classification of cell line as Low(1), Medium(2) or High(3) sensitivity to compound",[2]; NSCLC A549/ATCC (CL1004),3
same,"classification of cell line as Low(1), Medium(2) or High(3) sensitivity to compound",[2]; NSCLC EKVX (CL1008),1
same,"classification of cell line as Low(1), Medium(2) or High(3) sensitivity to compound",[2]; NSCLC HOP-62 (CL1026),2
same,"classification of cell line as Low(1), Medium(2) or High(3) sensitivity to compound",[2]; NSCLC HOP-92 (CL1029),1
same,"classification of cell line as Low(1), Medium(2) or High(3) sensitivity to compound",[2]; NSCLC NCI-H226 CL1013,1
same,sensitivity class NSCLC NCI-H23(I) CL1001,"[2]; cell line NSCLC NCI-H23(I), CL1001",2
same,sensitivity class NSCLC NCI-H332M CL1017,"[2]; cell line NSCLC NCI-H332M, CL1017",2
same,sensitivity class NSCLC NCI-H460 CL1021,"[2]; cell line NSCLC NCI-H460, CL1021",3
same,sensitivity class Ovarian IGROV1 CL6010,"[2]; cell line Ovarian IGROV1, CL6010",2
same,sensitivity class Ovarian OVCAR-3 CL6001,"[2]; cell line Ovarian OVCAR-3, CL6001",2
same,sensitivity class Ovarian OVCAR-4 CL6002,"[2]; cell line Ovarian OVCAR-4, CL6002",1
same,sensitivity class Ovarian OVCAR-5 CL6003,"[2]; cell line Ovarian OVCAR-5, CL6003",2
same,sensitivity class Prostate DU-145 CL11003,"[2]; cell line Prostate DU-145, CL11003",2
same,sensitivity class Renal A498 CL9013,"[2]; cell line Renal A498, CL9013",1
same,sensitivity class Renal ACHN CL9023,"[2]; cell line Renal ACHN, CL9023",2
same,sensitivity class Renal RXF-393 CL9016,"[2]; cell line Renal RXF-393, CL9016",1
same,sensitivity class Renal SN12C CL9008,"[2]; cell line Renal SN12C, CL9008",3
same,sensitivity class Renal TK10 CL9024,"[2]; cell line Renal TK10, CL9024",1
same,sensitivity class Renal UO-31 CL9004,"[2]; cell line Renal UO-31, CL9004",2
